Data: patent publication US20130109698A1, “Small Molecule Inhibitors of Functions of the HIV-1 Matrix Protein” (priority 2010, published 2013)

Experiments:
HIV-1 MA = target: T1, HIV-1 MA (Human immunodeficiency virus type 1 group M subtype B, UniProt P03348); test: Surface plasmon resonance direct binding to immobilized HIV-1 MA; details: for direct interaction with sensor chip-immobilized HIV-1 MA: CM7 sensor chip, 10 μM (FIG. 14)
T1 construct: His6 (N, cleaved yes); SUMO (N, cleaved yes); made in house; host or cells: Escherichia coli BL21 (DE3) Codon+-RIL
Source text: An assay was devised to monitor the interactions of small-molecule compounds to HIV-1 MA using SPR. In this assay, HIV-1LA1 MA was immobilized to the flow cells of a CM5 sensor chip to high density (˜1.3 kRU) or a CM7 sensor chip to high density (19 kRU) using standard amine coupling. A reference surface was similarly created by immobilizing the SUMO protein or a nonspecific antibody ARC4033 (antimouse/rat interferon-γ: BioSource). In small-molecule assays, the buffering system used is important due to the low responses obtained in binding assays. […] A stock solution of the MTI compounds was prepared by dissolving in 100% dimethyl sulfoxide (DMSO) to a final concentration of 10 mM.
To prepare the sample for analysis, 30 μL of the stock solution of the compound of the invention was added to sample preparation buffer (PBS, pH 7.2) to a final volume of 1 mL and mixed thoroughly. Preparation of analyte in this manner ensured that the concentration of DMSO was matched with that of running buffer with 3% DMSO. Lower concentrations of each compound were then prepared by two-fold serial dilutions into running buffer (PBS, 3% DMSO, pH 7.2). These compound dilutions were then injected over the control and MA surfaces at a flow rate of 30 μL min^−, for a 4-min association phase, followed by a 5-min dissociation phase.
In one aspect, owing to the relatively fast dissociation rates of these compounds, regeneration of these surfaces was accomplished by extensive washing of the system followed by a 5 min wait phase, a second wash, and a final 15 min wait phase. To secure complete regeneration, a buffer injection (5 min^on/5 min^off) was performed before each subsequent injection of compound.
Response to a small-molecule compound (NBD-556) specific for HIV-1 gp120 was also monitored to ensure specificity.
Data analysis was performed using BIAEvaluation 4.0 software (GE Healthcare). The responses of a buffer injection and responses from the ARC4033-immobilized reference cell were subtracted to account for nonspecific binding. The average maximum response was generated from a minimum of 3 data sets and was used to define the standard deviation for each compound binding to the HIV-1 MA protein.
The MTI compounds are predicted to interact with HIV-1 MA and thereby disrupt its functioning during the HIV-1 replication cycle. However, it is possible that a compound might exert its action via another mechanism not involving MA. Therefore, studies were performed to determine that the MTI compounds are directed against HIV-1 MA. The direct interaction of compounds CMPD-18, CMPD-17, CMPD-7, and CMPD-14 with HIV-1 MA was assayed using surface plasmon resonance interaction analyses. Wild-type HIV-1 MA protein was overproduced in E. coli using the pETHSUL expression system and purified using successive IMAC strategies, followed by an ion exchange chromatographic step as outlined in Materials and Methods. FIG. 6 illustrates the purification profile of HIV-1 MA. The purified MA was then immobilized onto the surface of a high-capacity CM7 sensor chip. Similarly, the monoclonal antibody ARC4033 (antimouse/rat interferon-γ; BioSource, Invitrogen, Carlsbad, Calif.) was immobilized on a CM7 sensor chip and was used to correct for background binding and instrument and buffer artifacts.

herpes simplex type 1 = test: Antiviral spectrum: HSV-1 in Vero cells; type: cell-based; details: herpes simplex type 1, up to 100 μM
Protocol: The effects of the compounds on HSV-1 (dsDNA; strain HF evaluated in Vero cells; virus and cells obtained from the American Type Culture Collection [ATCC]) were assessed as described previously (Ptak et al., 2008, Antimicrob Agents Chemother 52:1302-1317).

influenza H1N1 = test: Antiviral spectrum: cytopathic effect assay; type: cell-based; details: influenza H1N1, up to 100 μM
HIV-1 92BR030 = test: Anti-HIV efficacy in human PBMCs, reverse transcriptase activity; type: cell-based; details: HIV-1 92BR030, PBMCs; for IC50 / IC90: Human immunodeficiency virus 1, PBMC
Protocol: (§1) HIV human peripheral blood mononuclear cell (PBMC) assays were performed as described previously (Lanier et al., 2010, Antimicrob Agents Chemother 54:2901-2909 and Ptak et al., 2008, Antimicrob Agents Chemother 52:1302-1317). Briefly, fresh PBMCs, seronegative for HIV and hepatitis B virus (HBV), were isolated from blood samples of the screened donors (Biological Specialty Corporation, Colmar, Pa.) by using lymphocyte separation medium (LSM; density, 1.078±0.002 g/ml; Cellgro; Mediatech, Inc.) by following the manufacturer's instructions. Cells were stimulated by incubation in 4 μg/mL phytohemagglutinin (PHA; Sigma) for 48 to 72 h. Mitogenic stimulation was maintained by the addition of 20 U/mL recombinant human interleukin-2 (rhIL-2; R&D Systems, Inc.) to the culture medium. PHA-stimulated PBMCs from at least two donors were pooled, diluted in fresh medium, and added to 96-well plates at 5×10^4 cells/well. Cells were infected (final multiplicity of infection [MOI] of ≅0.1) in the presence of nine different concentrations of test compounds (triplicate wells/concentration) and incubated for 7 days. To determine the level of virus inhibition, cell-free supernatant samples were collected for analysis of reverse transcriptase activity (Buckheit et al., 1991, AIDS Res Hum Retroviruses 7:295-302). Following removal of supernatant samples, compound cytotoxicity was measured by the addition of 3-(4,5-dimethylthiazol-2-yl)-5-(3-carboxymethoxy-phenyl)-2-(4-sulfophenyl)-2H-tetrazolium (MTS; CellTiter 96 reagent; Promega) by following the manufacturer's instructions.

HIV-1 93IN101 = test: as above; type: cell-based; details: HIV-1 93IN101, PBMCs; for IC50 / IC90: Human immunodeficiency virus 1, PBMC
Protocol: as §1

[1] = test system: luciferase-reporter HIV-1 NL4-3 pseudotyped with HxBc2 envelope produced in 293T cells; test: microbe, parasite or virus in culture
SIV MAC251 = test: Antiviral efficacy in PBMCs, reverse transcriptase activity; type: cell-based; details: for IC50 / IC90: Simian immunodeficiency virus, PBMC
Dengue serotypes 1-4 = test: Antiviral spectrum: cytopathic effect assay; type: cell-based
yellow fever = type: cell-based; details: up to 100 μM
Japanese encephalitis = test: Antiviral spectrum: cytopathic effect assay; type: cell-based
[2] = test system: respiratory syncytial virus; test: Antiviral spectrum: cytopathic effect assay; type: cell-based
Chikungunya = test: Antiviral spectrum: cytopathic effect assay; type: cell-based

Row | SMILES | direct interaction with sensor chip-immobilized HIV-1 MA (HIV-1 MA) | inhibitory effects on replication (herpes simplex type 1) | inhibitory effects on replication (influenza H1N1) | Antiviral index (TC50/IC50) (HIV-1 92BR030) | IC50 (HIV-1 92BR030) | IC90 (HIV-1 92BR030) | Antiviral index (TC50/IC50) (HIV-1 93IN101) | IC50 (HIV-1 93IN101) | IC90 (HIV-1 93IN101) | IC50 [1] | Antiviral index (TC50/IC50) (SIV MAC251) | IC50 (SIV MAC251) | IC90 (SIV MAC251) | inhibitory effects on replication (Dengue serotypes 1-4) | inhibitory effects on replication (yellow fever) | inhibitory effects on replication (Japanese encephalitis) | inhibitory effects on replication [2] | inhibitory effects on replication (Chikungunya) | interaction with HIV-1 MA versus SUMO (HIV-1 MA; 25.1 μM (FIG. 11))
1 | Cc1ccc(NC(=O)CN2CCN(Cc3nc(-c4ccc(F)cc4)no3)CC2)cc1 [CMPD-7, 2-(4-((3-(4-fluorophenyl)-1,2,4-oxadiazol-5-yl)methyl)piperazin-1-yl)-N-(p-tolyl)acetamide] | directly interacted | no inhibitory effects | no inhibitory effects | > 10.72 | 9.33 µM | > 100 µM | > 6.13 | 16.3 µM | > 100 µM | 28 µM | > 10.55 | 9.48 µM | 31 µM | no inhibitory effects | no inhibitory effects | no inhibitory effects | no inhibitory effects | no inhibitory effects | –
2 | CCOc1ccc(NC(=O)Cc2cn3ccsc3n2)cc1S(=O)(=O)N1CCCCC1 [CMPD-18, N-(4-ethoxy-3-(piperidin-1-ylsulfonyl)phenyl)-2-(imidazo[2,1-b]thiazol-6-yl)acetamide] | directly interacted | no inhibitory effects | no inhibitory effects | 3.95 | 23.4 µM | 94 µM | 3.00 | 30.8 µM | 85.2 µM | > 100 µM | 1.06 | 87.1 µM | > 100 µM | no inhibitory effects | no inhibitory effects | no inhibitory effects | no inhibitory effects | no inhibitory effects | specific interaction
3 | O=C(CNC(=O)COc1ccccc1)NCc1ccc(C(=O)N2CCCCC2)cc1 [CMPD-14, N-(2-oxo-2-((4-(piperidine-1-carbonyl)benzyl)amino)ethyl)-2-phenoxyacetamide] | directly interacted | no inhibitory effects | no inhibitory effects | > 4.51 | 22.2 µM | 68.6 µM | > 5.56 | 18 µM | 62.1 µM | 95 µM | > 5.85 | 17.1 µM | 44.2 µM | no inhibitory effects | no inhibitory effects | no inhibitory effects | no inhibitory effects | no inhibitory effects | –
